Legend:
Integrase [1] = target: T1, Integrase (Human immunodeficiency virus 1, UniProt Q7ZJM1); experiment: Inhibitory concentration as 50% inhibition of HIV-1 integrase enzyme at strand transfer stage of DNA integration.
Integrase [2] = target: T1, Integrase; experiment: Inhibition of HIV-1 integrase enzyme at 3`- processing stage of DNA integration

T1 sequence (Q7ZJM1 whole entry): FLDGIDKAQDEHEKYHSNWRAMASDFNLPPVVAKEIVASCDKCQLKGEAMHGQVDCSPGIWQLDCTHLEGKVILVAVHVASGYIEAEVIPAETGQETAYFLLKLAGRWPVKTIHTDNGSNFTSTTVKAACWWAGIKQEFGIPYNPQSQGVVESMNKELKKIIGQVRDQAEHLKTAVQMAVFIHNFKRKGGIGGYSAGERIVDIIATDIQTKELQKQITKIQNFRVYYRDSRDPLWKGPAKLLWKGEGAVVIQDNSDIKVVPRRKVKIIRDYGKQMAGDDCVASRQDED

Row | Compound | IC50 (Integrase [1]) | IC50 (Integrase [2])
1 | C=c1[nH]n(C(=O)c2ccc(Cl)cc2)c(=O)c1=Cc1ccc(O)cc1 | > 293 µM | > 293 µM
2 | C=c1[nH]n(C(=O)c2ccccc2O)c(=O)c1=Cc1ccc(OC)cc1 | – | 0.9 µM
3 | C=c1[nH]n(C(=O)c2ccccc2O)c(=O)c1=Cc1ccc(O)c(OC)c1 [2-(2-Hydroxy-benzoyl)-4-[1-(4-hydroxy-3-methoxy-phenyl)-meth-(E)-ylidene]-5-methyl-2,4-dihydro-pyrazol-3-one] | 0.6 µM | 0.8 µM
4 | C=c1[nH]n(C(=O)c2ccccc2O)c(=O)c1=Cc1ccc(O)cc1 [2-(2-Hydroxy-benzoyl)-4-[1-(4-hydroxy-phenyl)-meth-(E)-ylidene]-5-methyl-2,4-dihydro-pyrazol-3-one] | 0.9 µM | 0.6 µM
5 | C=c1[nH]n(C(=O)c2ccc(Cl)cc2)c(=O)c1=Cc1ccccc1O [2-(4-Chloro-benzoyl)-4-[1-(2-hydroxy-phenyl)-meth-(E)-ylidene]-5-methyl-2,4-dihydro-pyrazol-3-one] | > 293 µM | > 293 µM

Results, then the molecule that gave them:

Row | IC50 (Integrase [1]) | IC50 (Integrase [2]) | Compound
6 | > 260 µM | > 260 µM | C=c1[nH]n(C(=O)c2ccc(Cl)cc2)c(=O)c1=Cc1ccc(OC)c(OC)c1 [2-(4-Chloro-benzoyl)-4-[1-(3,4-dimethoxy-phenyl)-meth-(E)-ylidene]-5-methyl-2,4-dihydro-pyrazol-3-one]
7 | > 293 µM | > 293 µM | C=c1[nH]n(C(=O)c2ccc(Cl)cc2)c(=O)c1=Cc1cccc(O)c1 [2-(4-Chloro-benzoyl)-4-[1-(3-hydroxy-phenyl)-meth-(E)-ylidene]-5-methyl-2,4-dihydro-pyrazol-3-one]
8 | > 280 µM | > 280 µM | C=c1[nH]n(C(=O)c2ccc(Cl)cc2)c(=O)c1=Cc1ccc(Cl)cc1 [2-(4-Chloro-benzoyl)-4-[1-(4-chloro-phenyl)-meth-(E)-ylidene]-5-methyl-2,4-dihydro-pyrazol-3-one]
9 | > 240 µM | > 240 µM | C=c1[nH]n(C(=O)c2ccc(Cl)cc2)c(=O)c1=Cc1cc(OC)c(OC)c(OC)c1 [2-(4-Chloro-benzoyl)-5-methyl-4-[1-(3,4,5-trimethoxy-phenyl)-meth-(E)-ylidene]-2,4-dihydro-pyrazol-3-one]
